Reference: PMC12669732, “Synergistic targeting of cancer cells through simultaneous inhibition of key metabolic enzymes” (Cell Death and Differentiation, 2025)

Assays:
[1] = target: T1, complex I (Homo sapiens, UniProt O75251+O75306+P03886); experiment: spectrophotometric NADH oxidation, rotenone-sensitive complex I activity; format: biochemical; settings: 120 uM NADH, 20 uM oxidized cytochrome c, pH 7.5, 37 °C; Q-site (ubiquinone reduction site), no effect at NADH site
T1 construct: gene NDUFS2; native respiratory complex I (whole multi-subunit complex)

[2] = target: T2, complex I (bovine heart) (Bos taurus, UniProt P03887+P17694+P42026); experiment: as above; format: biochemical; settings: 120 uM NADH, 20 uM oxidized cytochrome c, pH 7.5, 37 °C; Q-site (ubiquinone reduction site), no effect at NADH site
T2 construct: gene NDUFS2; native respiratory complex I (whole multi-subunit complex)
T2 sequence (P17694 34-463): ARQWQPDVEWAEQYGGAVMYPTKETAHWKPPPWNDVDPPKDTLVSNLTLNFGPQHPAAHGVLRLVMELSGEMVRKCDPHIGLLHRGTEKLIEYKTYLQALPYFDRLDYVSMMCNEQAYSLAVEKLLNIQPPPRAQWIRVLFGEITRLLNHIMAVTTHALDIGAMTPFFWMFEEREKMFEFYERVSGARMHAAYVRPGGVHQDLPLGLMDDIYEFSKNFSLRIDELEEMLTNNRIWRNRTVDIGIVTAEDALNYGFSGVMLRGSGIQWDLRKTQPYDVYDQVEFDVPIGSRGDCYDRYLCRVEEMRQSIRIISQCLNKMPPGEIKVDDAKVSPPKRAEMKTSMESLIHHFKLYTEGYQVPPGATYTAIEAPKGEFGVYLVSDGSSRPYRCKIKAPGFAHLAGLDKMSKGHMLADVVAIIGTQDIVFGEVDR
T2 sequence (P42026 38-216): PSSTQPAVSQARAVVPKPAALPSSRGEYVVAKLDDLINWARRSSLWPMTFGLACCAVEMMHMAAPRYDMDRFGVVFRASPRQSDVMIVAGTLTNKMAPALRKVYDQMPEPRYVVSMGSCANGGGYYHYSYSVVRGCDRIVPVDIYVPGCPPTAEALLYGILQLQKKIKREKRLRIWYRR
T2 sequence (P03887 whole entry): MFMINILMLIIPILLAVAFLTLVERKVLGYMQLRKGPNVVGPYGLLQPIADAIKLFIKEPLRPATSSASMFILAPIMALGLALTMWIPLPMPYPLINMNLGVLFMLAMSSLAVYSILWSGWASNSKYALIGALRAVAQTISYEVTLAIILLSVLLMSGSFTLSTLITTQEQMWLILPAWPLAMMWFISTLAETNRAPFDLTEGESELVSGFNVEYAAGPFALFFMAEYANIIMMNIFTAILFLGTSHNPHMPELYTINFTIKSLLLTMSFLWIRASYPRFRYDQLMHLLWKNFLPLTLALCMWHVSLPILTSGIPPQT

T1 sequence (O75306 34-463): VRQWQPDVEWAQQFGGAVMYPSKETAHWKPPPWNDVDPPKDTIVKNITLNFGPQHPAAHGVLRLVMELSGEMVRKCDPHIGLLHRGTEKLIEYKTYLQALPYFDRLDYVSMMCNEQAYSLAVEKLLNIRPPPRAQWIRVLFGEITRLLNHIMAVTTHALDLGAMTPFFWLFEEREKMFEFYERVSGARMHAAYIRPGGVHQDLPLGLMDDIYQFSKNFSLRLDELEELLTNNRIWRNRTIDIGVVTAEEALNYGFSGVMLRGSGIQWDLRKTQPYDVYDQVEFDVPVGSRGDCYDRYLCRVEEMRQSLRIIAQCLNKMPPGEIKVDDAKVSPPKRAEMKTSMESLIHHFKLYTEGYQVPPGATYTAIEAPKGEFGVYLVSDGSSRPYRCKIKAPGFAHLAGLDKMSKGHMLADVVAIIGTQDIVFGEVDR
T1 sequence (O75251 39-213): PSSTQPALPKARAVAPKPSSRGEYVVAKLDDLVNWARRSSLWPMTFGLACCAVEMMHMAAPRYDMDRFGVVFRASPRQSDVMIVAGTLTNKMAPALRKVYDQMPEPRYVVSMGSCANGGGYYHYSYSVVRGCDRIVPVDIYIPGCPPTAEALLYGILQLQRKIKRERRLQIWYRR
T1 sequence (P03886 whole entry): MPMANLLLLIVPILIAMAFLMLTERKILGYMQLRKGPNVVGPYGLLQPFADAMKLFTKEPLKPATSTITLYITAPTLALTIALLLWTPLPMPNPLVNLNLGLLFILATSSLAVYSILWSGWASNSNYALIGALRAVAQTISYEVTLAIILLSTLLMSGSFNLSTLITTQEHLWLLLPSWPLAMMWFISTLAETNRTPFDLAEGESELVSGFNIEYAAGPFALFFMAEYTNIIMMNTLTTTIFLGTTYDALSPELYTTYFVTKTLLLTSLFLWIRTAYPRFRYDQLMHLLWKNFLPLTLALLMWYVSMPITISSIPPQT

C[C@@H](C(=O)Nc1ccc(Cl)cc1)[C@H]1CC[C@@H](c2ccnc3ccc(F)cc32)CC1 [BMS-986205]
complex I activity [1]: dose-dependent decrease of complex I activity in mitochondria from KRAS^G12V/MYC, HEK293T cells and bovine heart | complex I activity [2]: dose-dependent decrease of complex I activity in mitochondria from KRAS^G12V/MYC, HEK293T cells and bovine heart
